Assay results published in PMC4865820, “Branched Peptide, B2088, Disrupts the Supramolecular Organization of Lipopolysaccharides and Sensitizes the Gram-negative Bacteria” (Scientific Reports, 2016).
Positions of bridges follow the written chain, without caps; N, C: chain ends. Non-standard residues stand in square brackets, D forms with d. Residues, ends and D or L forms follow the SMILES beside them. Chains are numbered I, II in the order given. *: point of attachment. X1 = CC[C@H](C)CCCCC(=O)*; Dab = NCC[C@H](N)C(=O)O

Key:
[1] = tested on: LPS (E. coli serotype 055:B5); assay: BODIPY TR cadaverine (BC) displacement assay with LPS; type: binding; conditions: 5 mM HEPES pH 7.4, duplicates; for ED50 (50% displacement of BC dye from LPS; also called BC50): fluorescence ex 580/em 620 nm, with respect to PMB; for EC50: no unit in table, ED50 values in μM, read-out: BC50 (LPS binding)
Summary of the method: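 Peptides (0.02–25.6 μM, two-fold dilutions) mixed 1:1 with BODIPY TR cadaverine:LPS (E. coli 055:B5) mixture in 5 mM HEPES pH 7.4; fluorescence at 580/620 nm. Displacement normalized to polymyxin B (Fmax) and probe:LPS alone (F0); ED50 from curve fit, duplicates.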

[2] = tested on: P. aeruginosa ATCC 27853; type: cell-based; conditions: for Fractional inhibitory concentration of peptide/PMB, combination with Genta: first number in parenthesis; for Fractional inhibitory concentration of peptide/PMB, combination with Genta / Fractional inhibitory concentration of antibiotic, Genta combination: ATCC 27853; for Fractional inhibitory concentration of antibiotic, Genta combination: second number in parenthesis
Summary of the method: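 Checkerboard combinations of peptide and antibiotic, each 2-fold diluted up to 1× MIC in MHB, were tested against ~10^6 CFU/ml final inoculum. Plates were incubated 24 h at 37 °C, with growth read at OD600. FICI was the sum of the combination-to-alone MIC ratios for each agent, and the lowest FICI from duplicate experiments was reported.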

[3] = tested on: P. aeruginosa ATCC 9027; assay: Mice model of infectious keratitis; type: in vivo, C57BL6 mice; conditions: for Corneal bacterial burden: 0.15% gatifloxacin or 0.05% B2088 alone
Method: The marked synergism between B2088 and gatifloxacin in the mammalian cell culture model prompted us to investigate the efficacy of the combinations in vivo. A mouse model of keratitis was used to examine the efficacy of peptide-antibiotics combinations. After infection of the cornea with P. aeruginosa ATCC 9027 strains, mice were treated with gatifloxacin (0.15% w/v) or B2088 (0.05%) alone as well as gatifloxacin (0.15%) in combination with B2088 (0.05% w/v). […] (Fig. 7c,d and Supplementary Fig. S3).
Wild type C57BL6 (6–8 weeks old and weighs about 20-30 gram) female mice purchased from National University of Singapore were used for this study. P. aeruginosa ATCC 9027 was grown overnight in TSA (Tryptic Soy Agar) at 37 °C. Concentration of 3 × 10^8 bacterial stock was prepared for mice corneal infection with United States Phosphate Buffer (USP) by resuspending few colonies from the overnight cultured TSA plates.
Healthy mice with good corneal clarity were chosen for this study through careful monitoring with slit-lamp biomicroscopy. A total of 60 mice were used for this study (n = 12 for 5 groups) at different time points (day1, day2, day3 post treatment). The animals were anesthetized subcutaneously by 0.2 ml of ketamine (100 mg/ml) and 0.1 ml of xylazil (20 mg/ml) in 0.7 ml of normal saline (0.08 ml/mice). […] Topical application of bacteria suspension (10 μl) was applied to the scratched cornea. All the animals had been treated with the antibiotics or peptide/antibiotics combinations (3 times/day) started from day1 post infection.
At post treatment day1, day 2 and day 3, four animals from each group were euthanized. The infected corneas was dissected and processed for colony counting. Single individual cornea from different groups was homogenized in sterile 0.9% NaCl containing 0.25% BSA and diluted serially (10^1 to 10^2 fold dilution), plated in duplicates on TSA plates and incubated for 48 h at 37 °C. The number of viable bacteria was enumerated as before.

| SMILES | ED50 (50% displacement of BC dye from LPS; also called BC50) [1] [µM] | EC50 [1] [µM] | Fractional inhibitory concentration of peptide/PMB, combination with Genta [2] | Fractional inhibitory concentration of antibiotic, Genta combination [2] | Reduction of antibiotic use in the presence of B2088 ([3]; 0.05% B2088 with gatifloxacin) | Corneal bacterial burden [3] | Corneal clarity and bacterial load ([3]; topical 0.3% gatifloxacin, 3 times/day, vs PBS-treated mice) | Fractional Inhibitory Concentration Index with Genta ([2]; peptide + gentamicin, P. aeruginosa ATCC 27853) |
| --- | --- | --- | --- | --- | --- | --- | --- | --- |
| CC(C)[C@H](NC(=O)[C@H](CCCCN)NC(=O)[C@H](CCCNC(=N)N)NC(=O)CNC(=O)[C@@H](N)CCCNC(=N)N)C(=O)N[C@H](C(=O)N[C@@H](CCCNC(=N)N)C(=O)N[C@@H](CCCNC(=N)N)C(=O)NCCCC[C@H](NC(=O)[C@H](CCCNC(=N)N)NC(=O)[C@H](CCCNC(=N)N)NC(=O)[C@@H](NC(=O)[C@@H](NC(=O)[C@H](CCCCN)NC(=O)[C@H](CCCNC(=N)N)NC(=O)CNC(=O)[C@@H](N)CCCNC(=N)N)C(C)C)C(C)C)C(=O)N[C@@H](CCCCN)C(=O)O)C(C)C [B2088] (I: H-RGRKVVRRKK-OH / II: H-RGRKVVRR; amide I:9-II:C; N-terminus and C-terminus assumed) | 1.92 ± 0.03 | 1.9 ± 0.1 | (0.25,0.25) | (0.25,0.25) | about 50% | increased bacterial burden |  |  |
| COc1c(N2CCNC(C)C2)c(F)cc2c(=O)c(C(=O)O)cn(C3CC3)c12 (stereo not shown) [Gatifloxacin] |  |  |  |  |  | increased bacterial burden | clear cornea and less bacterial load |  |
| CC[C@H](C)CCCCC(=O)N[C@@H](CCN)C(=O)N[C@H](C(=O)N[C@@H](CCN)C(=O)N[C@H]1CCNC(=O)[C@H]([C@@H](C)O)NC(=O)[C@H](CCN)NC(=O)[C@H](CCN)NC(=O)[C@H](CC(C)C)NC(=O)[C@@H](Cc2ccccc2)NC(=O)[C@H](CCN)NC1=O)[C@@H](C)O [Polymyxin B, polymyxin B, reference compound] (X1-[Dab]T[Dab][Dab][Dab][dF]L[Dab][Dab]T; lactam 4-C (inferred); N-terminus assumed) | 1.56 ± 0.02 | 1.56 ± 0.02 | (0.5,0.5) | (0.5,0.5) |  |  |  | 1.0 |
